Data as given in US20050064524A1, “Population of cells utilizable for substance detection and methods and devices using same” (priority 2003, published 2005).

What was measured:
[1] = test system: U937 cells; assay: Specificity of ROS probe DCFH-DA towards hydrogen peroxide and NO donor in labeled cells; type: cell-based; conditions: FIGS. 22a-b
Experimental: The pro-monocyte U937 cell line was used as cell culture model. Hydrogen peroxide was used as a source of ROS. Probe loading of cells was measured in bulk and at individual cell level. Probe concentration, loading time and cell washing were determined for the different ROS probes. The kinetics of ROS generation was measured in real time by monitoring sequentially the same individual cells. Photo toxicity induced by repeated excitations was checked. FIGS. 12-17, 18-19 and 20-21a-b show the ability of dihydrorhodamine 123 (DHR), dichlorodihydrofluorescein diacetate (DCFH-DA) and dihydroethidium (DHE), respectively, to detect ROS formation in U937 cells treated with hydrogen peroxide.
(§1) The specificity of DCFH-DA and DAF-2DA towards ROS and […] respectively, was tested.

[2] = test system: U937 cells; assay: Intracellular NO measurement with DAF-2DA probe in labeled cells; type: cell-based; conditions: for signal of cells labeled with DAF-2DA (NO probe): FIGS. 22a-b
Experimental: Fluorescent microscopy and imaging system—Olympus motorized upright epi-fluorescence BX51 microscope, equipped with motorized polarization filters for fluorescence polarization measurements was used. Cells were illuminated by a Mercury light source. The emitted fluorescence was imaged by CoolSNAP HQ monochrome CCD camera, or DVC-1312 (DVC Company, West Austin, Tex., USA) color camera. Digital image analysis of cellular fluorescence was performed by Image Pro plus software (Media Cybernetics. Inc. Silver Spring, Md.,USA).
Quantitative measurements of intracellular NO concentration in individual U937 cells were effected in response to incubation in the presence of the Diethylene triamine NONOate ([…]) donor (0.1-1 mM). The loading of cells with probe was measured in bulk at the individual cell level. Probe concentration loading time and cell washing were determined. The kinetic of NO generation was measured in real time by sequentially monitoring the same individual cells. Photo-toxicity induced by repeated excitations was checked and subtracted. Time response of NO generation in the presence or absence of DETA/NO donor (0.5 mM) in U937 cells labeled with DAF-2DA (10 μM, 15 min) is shown in FIG. 3. […] Quantitative measurements of intracellular NO levels in individual living cells labeled with DAF-2DA and treated with DETA/NO are shown in FIGS. 7a-b and 8a-b.
as §1

[3] = test system: individual live cell; conditions: hydrogen peroxide stimulus, FIG. 27
Experimental: Measurement of intracellular ROS in live cells—The measurement of intracellular reactive oxygen species (ROS) levels was performed using the DHR123 (1-10 μM), DCFDA(1 μM) or DHE (2 μM) probes.
For probe loading, 100 μl of cells at a concentration of 1.52×10^6 cells/mL in PBS or in serum free media without phenol red were incubated in the presence of the various probes for 15 min at 37° C. and 5% CO2, and then washed twice in PBS and thereafter exposed to either LPC (10-20 μM), MTX (50 nM) or H2O2 (10-500 μM).

| Structure (SMILES) | signal of cells labeled with DCFH-DA (ROS probe) [1] | intracellular NO generation in U937 cells in response to donor ([2]; U937 cells labeled with DAF-2DA (10 μM, 15 min), donor 0.1-1 mM) | signal of cells labeled with DAF-2DA (NO probe) [2] | temporal relationship between ROS generation (DHR) and onset of changes in mitochondrial membrane potential (TMRM) [3] |
| --- | --- | --- | --- | --- |
| NCCN(CCN)/[N+]([O-])=N/O [DETA/NO, Diethylene triamine NONOate] | only a minor response | accumulate NO | strong signal |  |
| OO [hydrogen peroxide] | strong and quantifiable signal |  | background signal | Hyperpolarization of mitochondrial membrane potential preceded the increase in ROS level |
